Measurements taken from patent US20250170090A1, “METHOD FOR PREVENTING OR TREATING DISEASE OR DISORDER ASSOCIATED WITH ANTINEOPLASTIC AGENT” (ONQUALITY PHARMACEUTICALS CHINA LTD., priority 2022, published 2025).
Like-named read-outs stand apart in the source and are kept apart here.

How the values were obtained:
[1] = tested on: hand-foot syndrome induced by anti-tumor agents; assay: Prevention of hand-foot syndrome induced by anti-tumor agents in rats, NO-NSAID ointment on hind paws (Table 2-2); format: in vivo, SD rats; settings: Rattus norvegicus, topical, read-out: Control rate; for responders at 1 %: ointment 1% wt
Summary of the method: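 Female SD rats (8 weeks, ~200 g; 10/group) received anti-tumour agents by daily oral gavage in Cremophor EL:ethanol 1:1 diluted ~3× with PBS. NO-NSAID or blank ointment was applied to hind paws once daily, 4 h restrained, then wiped off. Control rate = blank-group minus treated-group hand-foot syndrome incidence.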

HUVEC cells = assay: CCK-8 cell viability: alleviation of proliferative toxicity of anti-tumor agents on HUVEC cells (Tables 7-1, 7-2); format: cell-based; settings: Homo sapiens, 24 h, NO-NSAID 100 μM, percentage increase in viable cells vs anti-tumor agent alone, read-out: Response rate % (average)
Summary of the method: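 Viability was measured by CCK-8 after 24-48 h of culture. Cells received anti-tumor agent in DMSO with or without co-added NO-NSAID (dissolved in ethanol or sterile water), and results were corrected against the matching NO-NSAID solvent control.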

Q: Which responders at 1 % ([1]; 120 h, Sorafenib 80 mg/kg once a day, Days 5) does the source give for `CC(=O)Oc1ccccc1C(=O)OCc1no[n+]([O-])c1C(N)=O` [Compound A6] here?
A: 66.7%

Q: What about the responders at 1 % ([1]; 360 h, Encorafenib 80 mg/kg once a day, Days 15) of the same compound?
A: 40%

Q: And the responders at 1 % ([1]; 432 h, Cabozantinib 50 mg/kg once a day, Days 18)?
A: 40%

Q: What about the responders at 3 % ([1]; 432 h, Cabozantinib 50 mg/kg once a day, ointment 3% wt, Days 18) of the same compound?
A: 42.9%

Q: And the activation at 100 µM (HUVEC cells; Afatinib (10 μM))?
A: 45%

Q: And the activation at 100 µM (HUVEC cells; Anlotinib (5 μM))?
A: 50%

Q: And the activation at 100 µM (HUVEC cells; Apatinib (10 μM))?
A: 41%

Q: What about the activation at 100 µM (HUVEC cells; Axitinib (10 μM)) of the same compound?
A: 22%

Q: What about the activation at 100 µM (HUVEC cells; Cabozantinib (5 μM)) of the same compound?
A: 0%

Q: What about the activation at 100 µM (HUVEC cells; Dabrafenib (10 μM)) of the same compound?
A: 21%

Q: What about the activation at 100 µM (HUVEC cells; Dacomitinib (5 μM)) of the same compound?
A: 75%

Q: And the activation at 100 µM (HUVEC cells; Encorafenib (5 μM))?
A: 51%

Q: And the activation at 100 µM (HUVEC cells; Erdafitinib (10 μM))?
A: 56%

Q: What about the activation at 100 µM (HUVEC cells; Everolimus (5 μM)) of the same compound?
A: 52%

Q: What about the activation at 100 µM (HUVEC cells; Famitinib (5 μM)) of the same compound?
A: 66%

Q: And the activation at 100 µM (HUVEC cells; Fruquintinib (10 μM))?
A: 53%

Q: What about the activation at 100 µM (HUVEC cells; Gefitinib (10 μM)) of the same compound?
A: 77%

Q: What about the activation at 100 µM (HUVEC cells; Infigratinib (15 μM)) of the same compound?
A: 32%

Q: And the activation at 100 µM (HUVEC cells; Lapatinib (5 μM))?
A: 41%

Q: What about the activation at 100 µM (HUVEC cells; Lenvatinib (10 μM)) of the same compound?
A: 23%

Q: And the activation at 100 µM (HUVEC cells; Olmutinib (10 μM))?
A: 28%

Q: And the activation at 100 µM (HUVEC cells; Regorafenib (5 μM))?
A: 66%

Q: What about the activation at 100 µM (HUVEC cells; Selumetinib (5 μM)) of the same compound?
A: 64%

Q: What about the activation at 100 µM (HUVEC cells; Sorafenib (5 μM)) of the same compound?
A: 24%

Q: And the activation at 100 µM (HUVEC cells; Sunitinib (5 μM))?
A: 58%

Q: What about the activation at 100 µM (HUVEC cells; Vemurafenib (5 μM)) of the same compound?
A: 42%
